The target in this assay is T1, ADE/POD (anthocyanin degradation enzyme/peroxidase), purified Osmanthus POD.
T1 construct: major in-gel activity band about 110 kDa on semi-native PAGE
Kind of assay: guaiacol oxidation, absorbance at […] nm. The assay is classed as biochemical, Osmanthus fragrans. Conditions: guaiacol and H2O2 as substrates, 50 mM phosphate buffer pH 7.0; partially purified enzyme.

As for `O=C(O)c1cc(O)c(O)c(O)c1` [gallic acid], the IC50 is 35.55 μM GAE.

(Values after paper PMC6632198, “In planta high levels of hydrolysable tannins inhibit peroxidase mediated anthocyanin degradation and maintain abaxially red leaves of Excoecaria Cochinchinensis” (BMC Plant Biology, 2019).)
